Series [1] is described as follows: Plasma concentration (PK) after intravenous and intraperitoneal injections. The series is classed as in vivo. The note with it: for plasma concentration time course: after IV and IP injections; for plasma concentration time course / bioavailability through IP injection: 50-100 mg/kg; for bioavailability through IP injection: plasma concentrations similar or even higher after IP than IV.

Series [2] can be described thus: Tissue drug concentrations (tumor, liver, plasma) in treated CWR22R tumor-bearing mice. The series is classed as in vivo. How it is done: (§1) We tested these compounds in an in vivo efficacy experiment using model of CRPC in SCID mice, CWR22R. Two compounds, PLA1079 and 1125, which were synthesized in the amount of 500 mg were tested in full scale experiment with either 5 IV daily injections or 10 IP daily injections. After 5 IP or IV injections intra-tumor concentration of the compounds were measured in few mice from this experiment.
Two other compounds, PLA1148 and 1098 (PK testing in FIGS. 8 and 9) were tested in a small scale efficacy experiment. Upon PK testing of the compound PLA1148 one mouse was injected twice with 10 min interval. However the concentration of the drug in plasma of this mouse was not twice, but >4 times higher than in mice injected once. […] It was decided to utilize this observation in an attempt to get higher plasma and tumor concentration of both compounds. Therefore in the pilot efficacy experiment in the same model of CWR22R cells mice were treated with 2 IP injections with 10 minute interval. Treatment with PLA1098 was carried out for two days. […] However this is so far the highest concentration found in tumor. […]
(§2) LC50 data of in vitro 72 hours cytotoxicity assay are included in this table for comparison.

Another series relates to CWR22R tumors. Briefly: In vivo efficacy, subcutaneous xenografts of CWR22R cells in SCID mice. On the procedure: as §1
(§3) Two other compounds, PLA1148 and 1098 (PK testing in FIGS. 8 and 9) were tested in a small scale efficacy experiment. Upon PK testing of the compound PLA1148 one mouse was injected twice with 10 min interval. However the concentration of the drug in plasma of this mouse was not twice, but >4 times higher than in mice injected once. […] It was decided to utilize this observation in an attempt to get higher plasma and tumor concentration of both compounds. Therefore in the pilot efficacy experiment in the same model of CWR22R cells mice were treated with 2 IP injections with 10 minute interval. Treatment with PLA1098 was carried out for two days. […] However this is so far the highest concentration found in tumor.
Pilot efficacy experiments were run for compounds: PLA1163, PLA1148 using the same model of subcutaneous xenografts of CWR22R cells in SCID mice (FIGS. 18 and 19).

The nature of series [3]: Toxicity / side effects in treated mice. The series is classed as in vivo. How it is done:
as §3
This compound may be also potentially promising.

Series [4] in a line: Solubility for in vivo administration. The series is classed as physicochemical. The settings on record: tested for PK using IP injection of the drug in suspension.
The subject of the next series is CWR22R. Briefly: cells. Format: cell-based. How it is done: FIG. 21. Toxicity of PLA1055 to CWR22R cells in vitro depending on time of incubation. PLA1055 was added to CWR22R in full range of concentrations for the periods of time shown on the right. After that drug containing media were changed for drug free and survival of cells was detected at 72 hours after start of treatment using Alamar Blue assay (Promega).
This example provides a table (below) of the compounds of the present disclosure and their activity towards four different cell lines (i.e., CWR22R, HeLa, PC3, and MDA-MB-231). The IC50 for inhibition of growth is divided into 4 categories: A<1 μM, B 1-5 μM, C 5-20 μM, D>20 μM.
All compounds were tested for toxicity using 4 cells lines, target cells—CWR22R and non-target cells, Hela, PC3 and MDA-MB-231 (FIGS. 1A-F).
as §2
An in vitro experiment was run to detect the concentration of PLA1055 needed to kill all tumor cells in vitro (LC90) during different periods of time (30 minutes-72 hours, FIG. 21)).

Another series relates to Mdm2. Kind of series: Mdm2 accumulation, Western Blot. The settings on record: MCF7 cells with functionally inactive p53 (R175H, GSE56). The series is classed as cell-based. On the procedure: Results of Western Blot analysis: CWR22r cells were treated with 1 uM c52 for indicated time intervals.
(§4) Also tested was the hypothesis that degradation of androgen receptor in prostate and breast cancer cells may be due to p53 induced accumulation of mdm2, which is also ubiquitin ligase for androgen receptor (FIG. 15). p53 was inactivated in several cell lines using different approaches what led to the blockade of mdm2 accumulation after c52 treatment. However androgen receptor was still degraded in c52 treated cells even in the absence of p53 activation and mdm2 accumulation (FIG. 16).
On the technique in general: A western blot detects proteins with antibodies after separation by electrophoresis.

Another series concerns androgen receptor. Briefly: Androgen receptor level / degradation in cells. The series is classed as cell-based. The note with it: CWR22r or MCF7 cells with inhibited p53 activity.
Excerpt: as §4

For another series, the system named is Caveolin 1. Kind of series: Caveolin 1 expression in sensitive versus resistant cells. The settings on record: MDA MB 231 and MCF7 cells. The series is classed as cell-based. On the procedure: FIG. 12. Expression of Caveolinl in sensitive versus resistant cells. Caveolinl is expressed in resistant MDA MB 231 cells, but not in sensitive MCF7 cells.
Analysis of gene expression among 50 breast cancer cell lines differed in sensitivity as well as shRNA screening of resistant breast cancer cells identified Calveolin (FIG. 11) as a potential gene associated with resistance to c52. mRNA expression of Calveolin1 was tested among our sensitive and resistant cells as well as in response to c52 treatment. As expected Calveolin1 was expressed only in resistant cells, however it was not changed upon c52 treatment (FIG. 12). […] Calveolin1 was cloned in lentiviral expression vector and are now testing if overexpression of Calveolin1 in sensitive cells will make them resistant to c52 treatment.

The test system of a further series is p21. Briefly: p21 expression upon treatment. Format: cell-based. The settings on record: sensitive cells.
Series [5] has as its system presumable target protein. Briefly: DARTS (Drug Affinity Responsive Target Stability) assay in CWR22r lysates. Format: binding. The note with it: protein lysates from CWR22r cells. On the procedure: FIG. 24. DARTS (Drug Affinity Responsive Target Stability) assay was performed using c52 and PLA1118. According to this assay these compounds are capable of protecting presumable target protein from protease degradation. Protein lysates from sensitive CWR22r cells were incubated with or without the drug and subsequently digested with the indicated concentration of pronase. A. c52 was used (lane T-treated, M-marker) with indicated concentrations of pronase; ability of c52 to protect its target from protease cleavage was judged based on presence of protein band in the treated lane vs the untreated (UT) control.
Target identification through affinity chromatography and sensitivity to proteolysis methods was undertaken. […] These bands were excised from gel and sent for protein sequencing. (FIG. 24).

The mark [6] stands for this setting: one mouse, 24 hours after injections.

The text below walks through data of patent publication US20160024083A1, “COMPOUNDS AND METHODS FOR TREATING CANCERS” (HEALTH RESEARCH, INC., priority 2013, published 2016).

As usually defined, the CC50 is the concentration that lowers cell viability or growth by half.

Molecules are shown by their SMILES. Bounds are passed on as bounds.

Regarding `O=C1NCCc2c1ccc1c2c2ncccc2n1CCCF` [PLA1148], in [1], the “plasma concentration time course” value is given as “fast reduction of concentration during the first hour” and the “bioavailability through IP injection” value was “very high”. The “plasma concentration of mouse injected twice versus mice injected once” value in series [1] (two injections with 10 min interval) is over 4 times. In addition, in series [2] (50 mg/kg, IP), the “Liver” value worked out at 50 nM and the “Tumor concentration” value was 0 to 90 nM. Also, in series [2] (48 hours after treatment), the Tumor concentration was determined as 84 nM and the liver concentration was 49 nM. Besides, the plasma concentration result in series [2] (48 hours after treatment, compared with 24 hours (8.5 nM)) is “The same plasma concentration”. Also, in [2] (setting [6]), the drug in liver result is “no drug detected”, the drug in tumor result is recorded as “no drug detected” and the plasma concentration came out at 8.5 nM. For the same compound, the “tumors of mice that died on the 5th day” value with CWR22R tumors (CWR22R, two mice) is “almost undetectable tumors”. Moreover, the acute toxicity entry in [3] (2 IP injections with 10 minute interval, one day, symptoms suggested acute liver failure) is recorded as “acute toxicity developed quickly after injection”. In addition, the mortality in series [3] (after one day of injections) was 2 mice died next day and 3 other during next 5 days.

For `O=c1[nH]ccc2c1ccc1c2c2ccccc2n1CCCF` [PLA1121], the solubility entry in [4] is “poorly soluble”.

With `CCCn1c2ccccc2c2c3cc[nH]c(=O)c3ccc21` [PLA1099], the solubility entry in series [4] is reported as “poorly soluble”.

With `CCCn1c2ccccc2c2cc(-c3nnco3)ccc21` [PLA1079], in the series on CWR22R, the 50% cytotoxic concentration (CC50) was 120 nM. Further, in series [1], the “plasma concentration time course” value is “fast reduction of concentration during the first hour” and the “bioavailability through IP injection” value was “very high”. Besides, the “Tumor concentration” value in [2] (100 mg/kg, IP/IV) lay in the range of 24 to 48 nM. Also, in the series with CWR22R tumors (CWR22R in SCID mice, 5 IV daily injections or 10 IP daily injections), the in vivo efficacy result is reported as “absence of in vivo efficacy”. Besides, the Mdm2 level entry in the series on Mdm2 is “Mdm2 is no longer overexpressed”. Moreover, the AR level result in the series on androgen receptor is listed as “AR is being degraded”. Also, in the series with Caveolin 1, the “Caveolin1 expression upon treatment” value is listed as “did not change levels of Caveolinl expression”. In the series on p21, the p21 expression entry is on record as “overexpression of p21 in sensitive cells”.

Turning to `CC(=O)c1ccc2c(c1)c1cc(C(C)=O)ccc1n2CCNC(C)C` [CBL 137, reference compound], the Mdm2 level result in the series with Mdm2 is on record as “Mdm2 is no longer overexpressed”.

As to `CCCn1c2ccccc2c2c3c(ccc21)C(=O)N(C)C3` [PLA1098], the midpoint of cytotoxicity in the series with CWR22R, the CC50, lay at 40 nM. Further, in [1], the “plasma concentration time course” value is listed as “fast reduction of concentration during the first hour” and the “bioavailability through IP injection” value is on record as “very high”. Further, in series [2] (100 mg/kg, IP), the “Liver” value was determined as 0 nM and the “Tumor concentration” value lay in the range of 23 to 25 nM. The same compound displayed an Intratumor concentration in series [2] (2 tested tumors, 24 hours after last injection) of 25 nM. In [2] (24 hours after last injection), the compound in liver result is given as “no detectable” and the compound in plasma result is “no detectable”. Also, the “tumor volume and tumor weight vs vehicle control” value with CWR22R tumors (CWR22R, 2 IP injections with 10 minute interval for two days, 12 days after treatment) is “certain reduction of tumor volume and tumor weigh in the 1098 treated group vs vehicle control, but not statistically significant”. The in vivo efficacy entry in the series with CWR22R tumors (summary statement) is reported as “evidence of in vivo efficacy”. The “side effects during treatment” value in [3] (2 IP injections with 10 minute interval, two days) was “no signs of side effects”. Also, the signs of toxicity entry in [3] (summary statement) was “without any signs of toxicity”. The “protection of target protein from pronase degradation” value in series [5] is “protected their targets from degradation”.

Take `CCCn1c2ccccc2c2cc(S(C)(=O)=O)ccc21` [PLA1118]: the “protection of target protein from pronase degradation” value in series [5] was “faintly”.

For `O=C1NCCOc2c1ccc1c2c2ccccc2n1CCCF` [PLA1163], the CC50 in the series on CWR22R is 200 nM. For the same compound, in series [2] (40 mg/kg, IP), the “Liver” value is listed as 307 nM and the “Tumor concentration” value was in the range of 4 to 10 nM. Besides, in [4], the solubility entry is recorded as “poorly soluble”.
